According to ChEMBL document CHEMBL1141242, “Estrogen receptor beta selective ligands: discovery and SAR of novel heterocyclic ligands” (Bioorg Med Chem Lett, 2005):

Legend:
Estrogen receptor [1] = target: T1, Estrogen receptor (Homo sapiens, UniProt P03372); assay: biochemical
T1 sequence (P03372 whole entry): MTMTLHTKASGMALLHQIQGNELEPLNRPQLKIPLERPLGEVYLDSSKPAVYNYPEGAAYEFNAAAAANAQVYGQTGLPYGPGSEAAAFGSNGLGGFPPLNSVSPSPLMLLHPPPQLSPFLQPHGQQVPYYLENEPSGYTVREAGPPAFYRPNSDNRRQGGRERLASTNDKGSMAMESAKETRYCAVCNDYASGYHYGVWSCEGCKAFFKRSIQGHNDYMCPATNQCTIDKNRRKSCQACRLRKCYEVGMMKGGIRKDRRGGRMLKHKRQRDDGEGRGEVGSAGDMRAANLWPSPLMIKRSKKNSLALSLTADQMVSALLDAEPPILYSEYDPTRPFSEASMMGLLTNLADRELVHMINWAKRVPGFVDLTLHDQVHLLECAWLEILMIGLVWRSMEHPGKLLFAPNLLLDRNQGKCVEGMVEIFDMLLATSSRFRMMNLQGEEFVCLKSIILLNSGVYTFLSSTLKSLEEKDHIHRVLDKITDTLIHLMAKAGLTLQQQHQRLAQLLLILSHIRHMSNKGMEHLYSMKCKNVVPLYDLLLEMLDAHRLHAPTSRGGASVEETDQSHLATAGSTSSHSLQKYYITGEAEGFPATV

Estrogen receptor beta [2] = target: Estrogen receptor beta (Homo sapiens, UniProt Q92731); assay: biochemical
Chain of Estrogen receptor beta (Homo sapiens, UniProt Q92731) (Q92731 whole entry): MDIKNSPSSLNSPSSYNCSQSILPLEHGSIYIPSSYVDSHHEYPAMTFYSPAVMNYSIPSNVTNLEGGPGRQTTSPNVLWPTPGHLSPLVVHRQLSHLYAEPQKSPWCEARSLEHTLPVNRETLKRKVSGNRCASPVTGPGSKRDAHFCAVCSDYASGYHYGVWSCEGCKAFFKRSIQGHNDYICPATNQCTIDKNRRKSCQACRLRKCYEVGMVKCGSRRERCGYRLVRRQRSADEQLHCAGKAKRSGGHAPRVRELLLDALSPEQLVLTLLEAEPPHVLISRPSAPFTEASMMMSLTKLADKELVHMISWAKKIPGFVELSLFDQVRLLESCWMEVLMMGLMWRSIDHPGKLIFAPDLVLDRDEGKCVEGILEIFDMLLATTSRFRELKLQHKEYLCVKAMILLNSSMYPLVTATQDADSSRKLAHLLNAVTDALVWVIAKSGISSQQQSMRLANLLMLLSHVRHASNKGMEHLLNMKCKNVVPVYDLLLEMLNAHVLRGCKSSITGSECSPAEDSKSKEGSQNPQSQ

Estrogen receptor beta [3] = target: Estrogen receptor beta (Rattus norvegicus, UniProt Q62986)
Chain of Estrogen receptor beta (Rattus norvegicus, UniProt Q62986) (Q62986 whole entry): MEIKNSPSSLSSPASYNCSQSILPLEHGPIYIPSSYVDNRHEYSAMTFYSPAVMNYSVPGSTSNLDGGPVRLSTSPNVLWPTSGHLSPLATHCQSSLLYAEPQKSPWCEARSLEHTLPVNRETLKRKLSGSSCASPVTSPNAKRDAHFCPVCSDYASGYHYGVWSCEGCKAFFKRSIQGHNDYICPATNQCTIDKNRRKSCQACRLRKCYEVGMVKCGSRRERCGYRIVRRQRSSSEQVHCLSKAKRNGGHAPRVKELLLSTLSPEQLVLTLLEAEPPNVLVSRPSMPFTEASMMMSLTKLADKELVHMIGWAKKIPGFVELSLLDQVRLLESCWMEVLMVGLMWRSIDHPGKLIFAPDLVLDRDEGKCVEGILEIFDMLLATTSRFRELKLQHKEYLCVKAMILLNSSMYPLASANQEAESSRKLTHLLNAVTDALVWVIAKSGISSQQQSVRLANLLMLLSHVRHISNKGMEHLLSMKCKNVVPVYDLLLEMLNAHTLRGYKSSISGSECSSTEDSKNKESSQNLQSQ
Description: Effect on ERbeta in rat ovary granulosa cell line transfected with ER responsive luciferase reporter

Estrogen receptor [4] = target: T1, Estrogen receptor
Description: Effect on ERalpha in MCF7 cell line transfected with ER responsive luciferase reporter

| IC50 (Estrogen receptor [1]) | IC50 (Estrogen receptor beta [2]) | EC50 (Estrogen receptor beta [3]) | EC50 (Estrogen receptor [4]) | Compound |
| --- | --- | --- | --- | --- |
| 6950 nM | 171 nM |  |  | c1ccc(-c2[nH]c3ccccc3c2-c2ccccc2)cc1 |
| 8310 nM | 355 nM |  |  | Oc1ccc(-c2[nH]c3ccccc3c2-c2ccccc2)cc1 |
| > 6260 nM | 49.7 nM |  |  | Oc1ccc(-n2c(-c3cccs3)nc3ccccc32)cc1 |
| 2940 nM | 28.1 nM | 40.8 nM | > 1000 nM | Cn1cccc1-c1nc2ccccc2n1-c1ccc(O)cc1 |
| 94.8 nM | 11.9 nM |  |  | Oc1ccc(-c2[nH]c3ccccc3c2-c2ccc(O)cc2)cc1 |
| 1800 nM | 137 nM |  |  | Oc1ccc(-n2c(-c3ccccc3)nc3ccccc32)cc1 |
| 1160 nM | 14.3 nM |  |  | Cc1nocc1-c1nc2ccccc2n1-c1ccc(O)cc1 |
| 403 nM | 15.1 nM | 6.7 nM | 243 nM | Oc1ccc(-c2[nH]c(C(F)(F)F)nc2-c2ccccc2)cc1 |
| 1730 nM | 149 nM |  |  | Oc1ccc(-n2c(-c3ccccc3Cl)nc3ccccc32)cc1 |
| 24 nM | 1.12 nM | 1.09 nM | 38.5 nM | Oc1ccc(-c2c(-c3ccccc3)[nH]c3ccccc23)cc1 |

| Compound | IC50 (Estrogen receptor [1]) | IC50 (Estrogen receptor beta [2]) | EC50 (Estrogen receptor beta [3]) | EC50 (Estrogen receptor [4]) |
| --- | --- | --- | --- | --- |
| Oc1ccc(-c2noc(C(F)(F)F)c2-c2ccccc2)cc1 | 8.5 nM | 2.4 nM |  |  |
